One assay has as its target T1, human EGF receptor (Homo sapiens, UniProt P00533).
T1 construct: expressed in transfected cells; host or cells: NIH3T3 clone C7 (EGFR/C7; mouse fibroblasts)
Nature of the assay: EGF-receptor whole cell kinase assay (EGFR-3T3). In kind it is cell-based. On the procedure:
The following target cells were used for cellular kinaseassays: NIH3T3 clone C7 (Honegger et al., supra) engineered to over-express human EGF receptor; NIH3T3 cells engineered to over-express a chimeric receptor containing the EGFR extracellular domain and the HER2 intracellular kinase domain; the human mammary carcinoma line BT474 (ATCC HTB2) expressing HER2; and the human glioblastoma line U1242 that expresses PDGFR-β. Growth assays were carried out using human mammary epithelial SKBR3 (ATCC HTB30) cells, SKOV3 (ATCC HTB77) human ovarian cancer cell line, A431 cells, MCF7 human breast carcinoma cells, MCF7 cells overexpress the HER2 kinase (MCF7-HER2), NIH3T3 cells, and NIH3T3 cells overexpressing the HER2 kinase (3T3-HER2).
Unless otherwise stated the effect of various compounds on receptor tyrosine kinases were assayed as described in this section.
1. EGF-receptor Whole Cell Kinase Assay
EGFR kinase activity (EGFR-3T3 assay) in whole cells was measured as described below:
The following protocol was used:
A. Coat ELISA plates (Corning, 96 well, Cat. #25805-96) with 05-101 antibody at 0.5 μg per well in PBS, 150 μl final volume/well, and store overnight at 4° C. Coated plates are good for up to 10 days when stored at 4° C.
B. On day of use, remove coating buffer and replace with blocking buffer (5% Carnation Instant Non-Fat Dry Milk in PBS). Incubate the plate, shaking, at room temperature (about 23° C. to 25° C.) for 30 minutes. Just prior to use, remove blocking buffer and wash plate 4 times with TBST buffer.
A. EGFR/C7 cell line (Honegger, et al., Cell 51:199-209, 1987) can be use for this assay.
B. Choose dishes having 80-90% confluence for the experiment. Trypsinize cells and stop reaction by adding 10% CS DMEM medium. Suspend cells in DMEM medium (10% CS DMEM medium) and centrifuge once at 1000 rpm, and once at room temperature for 5 minutes.
C. Resuspend cells in seeding medium (DMEM, 0.5% bovine serum), and count the cells using trypan blue. Viability above 90% is acceptable. Seed cells in DMEM medium (0.5% bovine serum) at a density of 10,000 cells per well, 100 μl per well, in a 96 well microtiter plate. Incubate seeded cells in 5% CO2 at 37° C. for about 40 hours.
A. Check seeded cells for contamination using an inverted microscope. Dilute drug stock (10 mg/ml in DMSO) 1:10 in DMEM medium, then transfer 5 μl to a test well for a final drug dilution of 1:200 and a final DMSO concentration of […]. Control wells receive DMSO alone. Incubate in 5% CO2 at 37° C. for one hour.
B. Prepare EGF ligand: dilute stock EGF in DMEM so that upon transfer of 10 μl dilute EGF (1:12 dilution), 25 nM final concentration is attained.
C. Prepare fresh HNTG* sufficient for 100 μl per well; and place on ice.
D. After two hours incubation with drug, add prepared EGF ligand to cells, 10 μl per well, to yield a final concentration of 25 nM. Control wells receive DMEM alone. Incubate, shaking, at room temperature, for 5 minutes.
E. Remove drug, EGF, and DMEM. Wash cells twice with PBS. Transfer HNTG* to cells, 100 μl per well. Place on ice for 5 minutes. Meanwhile, remove blocking buffer from other ELISA plate and wash with TBST as described above.
F. With a pipette tip securely fitted to a micropipettor, scrape cells from plate and homogenize cell material by repeatedly aspirating and dispensing the HNTG* lysis buffer. Transfer lysate to a coated, blocked, and washed ELISA plate. Incubate shaking at room temperature for one hour.
G. Remove lysate and wash 4 times with TBST. Transfer freshly diluted anti-Ptyr antibody to ELISA plate at 100 μl per well. Incubate shaking at room temperature for 30 minutes in the presence of the anti-Ptyr antiserum (1:3000 dilution in TBST).
H. Remove the anti-Ptyr antibody and wash 4 times with TBST. Transfer the freshly diluted TAGO anti-rabbit IgG antibody to the ELISA plate at 100 μl per well.

The target of the next assay is T2, HER2 (Homo sapiens, UniProt P04626).
T2 construct: the human mammary carcinoma line BT474 (ATCC HTB2) expressing HER2; endogenous in cells; host or cells: BT474 human mammary carcinoma cells
Nature of the assay: HER2-BT474 whole cell kinase ELISA. It is filed as cell-based. As for the experimental part: HER2-BT474 assays measuring whole cell HER2 activity was carried out as described below:
All the following steps are at room temperature and aseptically, unless stated otherwise. All ELISA plate washing is by rinsing with distilled water three times and once with TBST.
Incubate the cells in 5% CO2 at 37° C. overnight.
2. ELISA Plate Coating and Blocking

The mark [1] stands for this setting: Table V, read-out: Estimated IC50 Cellular Kinase Assays EGFR (EGF-3T3).
Setting [2] is: Table VI, cellular kinase assay, read-out: EGFR-3T3.
[3] abbreviates: Table V, read-out: Estimated IC50 Cellular Kinase Assays HER2 (BT474).
The mark [4] stands for this setting: Table VI, cellular kinase assay, read-out: HER2-BT474.

Where “and” joins values, the source holds several entries; their conditions need not be identical. Equal values may be shown once. Read-outs that look alike come from different tables or passages of the source.

Turning to `CC(C)(C)c1cc(/C=C(\C#N)C(N)=S)cc(C(C)(C)C)c1O` [Compound M11], the IC50 on human EGF receptor (setting [1]) is 40 µM; at human EGF receptor (setting [2]), 21 µM; at HER2 (setting [3]), under 3 µM; at HER2 (setting [4]), 3.1 µM.

For the molecule `N#C/C(=C\c1ccc(O)c(O)c1)C(=S)NCc1ccccc1` [Compound M13], the IC50 on human EGF receptor (setting [1]) is over 100 µM; on human EGF receptor (setting [2]), over 100 µM; at HER2 (setting [3]), 14 µM; on HER2 (setting [4]), 14 µM. In addition, at HER2 (as described in Example 1), the “fold greater inhibition of HER2 compared to EGF-R” value is given as at least 7 fold.

As for `N#C/C(=C\c1ccc(O)c(O)c1)C(=O)Nc1cccc(C(F)(F)F)c1` [Compound M15], the IC50 on human EGF receptor (setting [1]) was over 100 µM; on human EGF receptor (setting [2]), over 100 µM; at HER2 (setting [3]), 16 µM; on HER2 (setting [4]), 16 µM.

Turning to `N#C/C(=C\c1cc(O)c(O)c(I)c1)C(=O)NCCCc1ccccc1` [Compound M16], the IC50 on human EGF receptor (setting [1]) was 4 µM and 4.4 µM; at human EGF receptor (setting [2]), 9 µM; on HER2 (setting [3]) it was 18 µM and 18.2 µM; on HER2 (setting [4]), 26 µM.

Regarding `CC(C)(C)c1cc(/C=C(\C#N)C(=O)NCCCc2ccccc2)cc(C(C)(C)C)c1O` [Compound M20, (E)-3-(3,5-di-t-Butyl-4-hydroxyphenyl)-2-[(3-phenyl-n-propyl)aminocarbonyl]acrylonitrile], the IC50 at human EGF receptor (setting [2]) was over 100 µM; at HER2 (setting [4]), 3 µM.

`CC(C)c1cc(/C=C(\C#N)C(=O)NCCCc2ccccc2)cc(C(C)C)c1O` [Compound M21, (E)-3-(3,5-Diisopropyl-4-hydroxyphenyl)-2-[(3-phenyl-n-propyl)aminocarbonyl]acrylonitrile]: the IC50 was over 100 µM on human EGF receptor (setting [2]) and 7.4 µM on HER2 (setting [4]).

For `CC(C)c1cc(C=C(C#N)C(N)=C(C#N)C#N)cc(C(C)C)c1O` [Compound M22, (E)-2-(1-Amino-2,2-dicyanoethenyl-3-(3,5-diisopropyl-4-hydroxyphenyl)acrylonitrile)], the values for the IC50 on human EGF receptor (setting [2]) and at HER2 (setting [4]) were over 50 µM and 4.2 µM, respectively.

Take `CC(C)c1cc(/C=C(\C#N)C(=S)NCCCc2ccccc2)cc(C(C)C)c1O` [Compound M24, (E)-3-(3,5-Diisopropyl-4-hyrdroxyphenyl)-2-[(3-phenyl-n-propyl)aminothiocarbonyl]acrylonitrile]: the IC50 was over 50 µM on human EGF receptor (setting [2]) and 3.1 µM at HER2 (setting [4]).

For `CC(C)c1cc(/C=C(\C#N)S(=O)(=O)c2ccccn2)cc(C(C)C)c1O` [Compound M26], the figures for the IC50 at human EGF receptor (setting [2]) and on HER2 (setting [4]) were over 100 µM and 9.6 µM, respectively.

On to `CC(C)c1cc(/C=C(\C#N)S(=O)(=O)CC#N)cc(C(C)C)c1O` [Compound M27], for which the IC50 on human EGF receptor (setting [2]) is over 50 µM; on HER2 (setting [4]), 4.6 µM.

Take `CC(C)c1cc(/C=C(\C#N)S(=O)(=O)/C(C#N)=C/c2cc(C(C)C)c(O)c(C(C)C)c2)cc(C(C)C)c1O` [Compound M29]: the IC50 on human EGF receptor (setting [2]) is over 50 µM; at HER2 (setting [4]), 1.4 µM.

Take `CC(C)c1cc(/C=C(\C#N)S(=O)(=O)c2ccccc2)cc(C(C)C)c1O` [Compound M30]: the IC50 turned out to be 61 µM at human EGF receptor (setting [2]) and 0.65 µM on HER2 (setting [4]).

`Cc1cc(/C=C(\C#N)S(=O)(=O)c2ccccc2)cc(C)c1O` [Compound M31]: the figures for the IC50 on human EGF receptor (setting [2]) and at HER2 (setting [4]) were over 100 µM and 5.4 µM, respectively. Further, the “activity in cellular assays” value on HER2 (cellular assays of the Examples, versus analogous compounds having bulkier R1 and R3 groups) is on record as “less activity”.

Turning to `Cc1cc(/C=C(\C#N)S(=O)(=O)c2ccccn2)cc(C)c1O` [Compound M32], the IC50 is 64 µM on human EGF receptor (setting [2]) and 7.3 µM on HER2 (setting [4]).

Regarding `CC(C)(C)c1cc(/C=C(\C#N)S(=O)(=O)c2ccccc2)cc(C(C)(C)C)c1O` [Compound M33, (E)-3-(3,5-di-t-Butyl-4-hydroxyphenyl)-2-(phenylsulfonyl)acrylonitrile], the values for the IC50 on human EGF receptor (setting [2]) and at HER2 (setting [4]) were over 100 µM and 0.17 µM, respectively.

For the molecule `CC(C)(C)c1cc(/C=C(\C#N)S(=O)(=O)c2ccccn2)cc(C(C)(C)C)c1O` [Compound M34, (E)-3-(3,5-di-t-Butyl-4-hydroxyphenyl)-2-[(pyrid-2-yl)sulfonyl]acrylonitrile], the IC50 at human EGF receptor (setting [2]) is over 100 µM; at HER2 (setting [4]), 0.11 µM.

Take `CC(C)(C)c1cc(/C=C(\C#N)C(=O)Nc2ccc(C(F)(F)F)cc2)cc(C(C)(C)C)c1O` [Compound M35, (E)-3-(3,5-di-t-Butyl-4-hydroxyphenyl)-2-[(4-trifluoromethyl)phenylaminocarbonyl]acrylonitrile]: the IC50 on human EGF receptor (setting [2]) is over 100 µM; at HER2 (setting [4]) it was 0.29 µM.

Take `CC(C)(C)c1cc(/C=C(\C#N)S(=O)(=O)CC#N)cc(C(C)(C)C)c1O` [Compound M36, (E)-3-(3,5-di-t-Butyl-4-hydroxyphenyl)-2-(cyanomethylsulfonyl)acrylonitrile]: the IC50 on human EGF receptor (setting [2]) turned out to be 56 µM; on HER2 (setting [4]), 0.4 µM.

In the case of “(E,E)-2-[[-Cyano-2-(3,5-diisopropyl-4-hydroxyphenyl)ethenyl]sulfonyl]-3-(3,5-di-t-butyl-4-hydroxyphenyl)acrylonitrile [Compound M37]”, the IC50 at human EGF receptor (setting [2]) was over 100 µM; at HER2 (setting [4]), 0.85 µM.

The record behind these values is patent publication US6596878B2, “Methods and compositions for inhibiting cell proliferative disorders” (Yissum Research & Development Company of the Hebrew …, priority 1994, dated 2003).
